Consider 2 compounds from patent US20100310471A1, “ANTIOXIDANT AND PARAMAGNETIC HEPARIN-NITROXIDE DERIVATIVES” (Johannes Gutenberg-Universität Mainz, priority 2007, published 2010).

For data set [1] the following is noted: known value; cited from earlier work.
Data set [2] can be described thus: EPR spectra of H—NRs in aqueous solution (line width). It counts as physicochemical. As to conditions: 0.1 mM aqueous solutions, pH 7.4, room temperature, X-band. The procedure:
FIG. 2. Spectra EPR of TEMPO and different H—NRs (0.1 mM aqueous solutions, pH 7.4). EPR spectra were recorded at room temperature using an X-band radiospectrometer MS200 (Magnettech GmbH, Berlin). Instrument parameters were 10 mW microwave power, 0.1 mT amplitude modulation, 100 kHz modulation frequency, sweep field 11 mT and 120 s sweep time.
The line widths of the EPR signals of all H—NRs were slightly broader in comparison to the EPR signal of TEMPOL, indicating slight decrease in the mobility of nitroxyl groups upon binding to heparin as well as spin-spin interactions between them. Thus, ΔH (in gauss) were 1.8, 2.1, 2.5, 2.0 and 2.5 for TEMPOL, H—NR-1, H—NR-2, H—NR-3 and H—NR-4, respectively. The line width the signal is critical for the in vivo EPR imaging. A narrower signal provides for better resolution, and is therefore preferred. As a result, the H—NR-3, in which nitroxide is bound to heparin via a linker, provides for a higher spectral mobility, and is thus preferred for EPR imaging.

Data set [3] has as its system heparin-binding sites of the vascular wall (rat aorta). Put plainly: Binding to rat aortic rings, detected by EPR (X-band) after wash with Krebs. As to conditions: for replacement of heparin-nitroxide from heparin-binding sites of rat aorta by dextran: 100 μM H—NR-2, 1 hr, 37° C., with 1 mM or 10 mM dextran (up to 100 molar excess). The procedure: Therefore, the heparin-nitroxide derivative of the present invention is able to specifically bind with high affinity to specific sites in biological vessels.
FIG. 4. Spectra EPR, (A) 10 μM H—NR-1 solution; (B) rat aortic ring (3 mm long) pre-incubated with 10 μM H—NR-1 for 1 hour and then washed 3 times with Krebs buffer; (C) rat aortic ring (3 mm long) pre-incubated with 10 μM H—NR-1 in the presence of heparin (liquemin, 30 units/ml) for 1 hour and then washed 3 times with Krebs buffer; (D) 5 μM 4-hydroxy-TEMPO; (E) rat aortic ring (3 mm long) pre-incubated with 10 μM 4-hydroxy-TEMPO for 1 hour and then washed 3 times with Krebs buffer. EPR spectra were recorded at room temperature using an X-band radiospectrometer MS200 (Magnettech GmbH, Berlin). Instrument parameters were 10 mW microwave power, 0.1 mT amplitude modulation, 100 kHz modulation frequency, sweep field 5 mT and 60 s sweep time. Representative spectra of 3 experiments are shown.
FIG. 5. The binding of H—NR-1 to rat aorta as a function of time and concentration. Rat aortic rings (3 mm long) were incubated (37° C.) with 10 μM or 100 μM H—NR-1 either for 0.5 hr, 1 hr, 1.5 hr, 2 hr, 3 hr and then washed out with Krebs solution. To estimate the amount of H—NR-1 bound to tissue, aortic rings were placed in capillaries, and spectra EPR(X-band) were recorded.
FIG. 6. […] Rat aortic rings (3 mm long) with or without endothelium were incubated (37° C.) with 10 μM H—NR-1 for 1 hr and then washed out with Krebs solution. To estimate the amount of H—NR-1 bound to tissue, aortic rings were placed in capillaries and spectra EPR(X-band) were recorded at room temperature.
FIG. 12. […] Rat aortic rings (3 mm long) were incubated (37° C.) with 100 μM H—NR-2 for 1 hr and then washed out with Krebs solution. Rings were incubated with H—NR-2 along (A) or in the presence of 1 mM dextran (B), or in the presence of 10 mM dextran (C). To estimate the amount of H—NR-2 bound to tissue, aortic rings were placed in capillaries, and spectra EPR(X-band) were recorded.

Take `CC1(C)CC(O)CC(C)(C)N1[O]` [TEMPOL, 4-hydroxy-2,2,6,6-tetramethylpiperidine-N-oxyl]: in data set [1], the half-life in vivo entry is “only a few minutes”. For the same compound, the “ΔH, line width of the EPR signal” value in data set [2] was found to be 1.8 gauss. Also, in data set [3] (aortic ring pre-incubated with 10 μM for 1 hour, washed 3 times with Krebs buffer), the “binding to rat aorta (EPR signal in tissue after wash)” value is “did not result in the appearance of the EPR signal in tissue”.

Take dextran: the “replacement of heparin-nitroxide from heparin-binding sites of rat aorta by dextran” value in data set [3] is listed as “unable to replace heparin-nitroxide from the vascular tissue”; in data set [3] (listed as Dextran) it was “unable to replace Heparin-nitroxide”.
